1 compound from article PMC8379256, “A xanthene derivative, DS20060511, attenuates glucose intolerance by inducing skeletal muscle-specific GLUT4 translocation in mice” (Communications Biology, 2021) can be followed below.

Where “and” joins values, the source holds several entries; their conditions need not be identical. Identical values can stand only once.

For this assay, the system named is WT and eNOSKO mice. Briefly: Oral GTT in wild-type and eNOS-knockout mice. The class given is in vivo, mouse. The settings on record: for Blood glucose: Glucose tolerance test, Wildtype, 10 mg/kg, individual animals. As to the method:
Fig. 7 DS20060511 treatment decreases blood glucose levels in both WT and eNOSKO mice during oral GTT and ITT. a, b Blood glucose levels during oral GTT in wild-type (WT, n = 5) and eNOS-knockout (KO, n = 5–6) mice. Mice received vehicle or DS20060511 (10 mg kg^−1) orally 15 min before the glucose administration (3.0 g kg^−1). c, d Blood glucose levels during ITT in WT (n = 4) and KO (n = 5) mice. Vehicle or DS20060511 (30 mg kg^−1) was given orally at the same time as 0.5 U kg^−1 insulin injection intraperitoneally. Values shown are means ± SEM. *P < 0.05, **P < 0.01, ***P < 0.001 vs. vehicle by the t-test.
C57BL/6 and db/db mice were purchased from CLEA Japan, Tokyo, Japan. GLUT4- knockout mice were generated at RIKEN BioResource Center, Tsukuba, Japan, according to a previously described method. eNOS-knockout mice were kindly provided by Dr. Masato Tsutsui[41],[42]. The mice were group-housed under controlled illumination (12:12 h light-dark cycle) and temperature (23 ± 2 °C) conditions and given free access to normal chow and water, unless otherwise specified. The HFD-fed obese mice were prepared by feeding C57BL/6 mice a HFD for at least 8 weeks from 6 weeks of age. […] Male mice were used for all the experiments in this study. The animal care and experimental procedures used in the study were approved by The University of Tokyo Animal Care Committee (Approval number: 27-3), and the study was carried out in accordance with the Animal Experimentation Guidelines of Daiichi Sankyo Co., Ltd (Approved number: 20000411).
Mice that had been denied access to food overnight received the indicated oral dose of DS20060511 or vehicle 15 min prior to the glucose load (1.5 g kg^−1, except for eNOS-knockout mice, which received 3.0 g kg^−1). Then, after the oral glucose load, the blood glucose levels were measured using Glutest Every in samples obtained from the tail vein at the indicated timepoints. Plasma insulin concentrations were also measured with an ELISA kit (Morinaga Institute of Biological Science, Yokohama, Japan) in blood samples collected from the tail vein at the indicated timepoints.

Take `COc1ccc2c(C)c(C(=O)O)ccc2c1C1C2=C(CC(C)(C)CC2=O)OC2=C1C(=O)CC(C)(C)C2` [DS20060511]: the Blood glucose (0 min) is 96 mg/dL and 111 mg/dL and 104 mg/dL and 93 mg/dL and 82 mg/dL; the Blood glucose (15 min) was 260 mg/dL and 212 mg/dL and 232 mg/dL and 229 mg/dL and 231 mg/dL and 181 mg/dL; the Blood glucose (30 min) is 253 mg/dL and 242 mg/dL and 215 mg/dL and 185 mg/dL and 284 mg/dL and 213 mg/dL; the Blood glucose (60 min) is 212 mg/dL and 210 mg/dL and 226 mg/dL and 281 mg/dL and 196 mg/dL; the Blood glucose (90 min) was 159 mg/dL and 172 mg/dL and 132 mg/dL and 150 mg/dL and 218 mg/dL and 154 mg/dL; the Blood glucose (120 min) was 120 mg/dL and 128 mg/dL and 115 mg/dL and 130 mg/dL and 170 mg/dL and 127 mg/dL. For the same compound, the Blood glucose (-15 min) is 79 mg/dL and 94 mg/dL and 75 mg/dL and 91 mg/dL and 73 mg/dL and 81 mg/dL. Further, the “blood glucose levels during oral GTT (in words)” value (WT and eNOSKO mice, 10 mg kg−1 po) is “significantly decreased blood glucose levels in both the WT and eNOSKO mice”.
